Laboratory results from paper PMC8409970, “In vitro and in silico studies of bis (indol-3-yl) methane derivatives as potential α-glucosidase and α-amylase inhibitors” (Journal of Enzyme Inhibition and Medicinal Chemistry, 2021).

Legend:
HepG2 cells = experiment: In vitro cytotoxicity assay (MTT) on HepG2 cells; format: cell-based, Human; settings: 20 ∼ 80 μM, 24 h
Procedure: (§1) Moreover, the preliminary in vitro safety of compounds 5e, 5 g, 5 h, and 5 s were tested on Mouse Preadipocytes cells (3T3-L1) and Human liver cancer cells (HepG2) using MTT method and the results were shown in Figure 11.
(§2) The 3T3-L1 cells or HepG2 cells were cultured in DMEM medium containing 10% foetal bovine serum, 100 U/mL penicillin and 0.1 mg/mL streptomycin in a humidified incubator with a 5% CO2 atmosphere at 37 °C. Cells in the logarithmic growth phase were used for this assay. After 5 × 10^3 3T3-L1 cells were seeded in 96 well plates for 24 h, compound with different concentration was added into each well for 24 h. MTT reagent (100 μL, 0.5 mg/mL) was added to each well for 4 h incubation. After the supernatant was discarded, 100 μL of DMSO was added. The absorbance was measured at 490 nm. Each sample was performed in 3 parallel experiments.

3T3-L1 cells = experiment: In vitro cytotoxicity assay (MTT) on 3T3-L1 cells; format: cell-based, Mouse; settings: 20 ∼ 80 μM, 24 h
Procedure: as §1, §2

α-glucosidase = α-glucosidase (Saccharomyces cerevisiae, UniProt P53341); experiment: Inhibition mechanism study of α-glucosidase inhibitor (enzyme concentration plots, Lineweaver-Burk plots); format: biochemical; settings: for Inhibition type against α-glucosidase: Lineweaver-Burk plots; for KIS value (μM) against α-glucosidase: binding of inhibitor to enzyme-substrate complex; for Reversibility of α-glucosidase inhibition: plots of enzyme concentration vs remaining enzyme activity
α-glucosidase, sequence (P53341 whole entry): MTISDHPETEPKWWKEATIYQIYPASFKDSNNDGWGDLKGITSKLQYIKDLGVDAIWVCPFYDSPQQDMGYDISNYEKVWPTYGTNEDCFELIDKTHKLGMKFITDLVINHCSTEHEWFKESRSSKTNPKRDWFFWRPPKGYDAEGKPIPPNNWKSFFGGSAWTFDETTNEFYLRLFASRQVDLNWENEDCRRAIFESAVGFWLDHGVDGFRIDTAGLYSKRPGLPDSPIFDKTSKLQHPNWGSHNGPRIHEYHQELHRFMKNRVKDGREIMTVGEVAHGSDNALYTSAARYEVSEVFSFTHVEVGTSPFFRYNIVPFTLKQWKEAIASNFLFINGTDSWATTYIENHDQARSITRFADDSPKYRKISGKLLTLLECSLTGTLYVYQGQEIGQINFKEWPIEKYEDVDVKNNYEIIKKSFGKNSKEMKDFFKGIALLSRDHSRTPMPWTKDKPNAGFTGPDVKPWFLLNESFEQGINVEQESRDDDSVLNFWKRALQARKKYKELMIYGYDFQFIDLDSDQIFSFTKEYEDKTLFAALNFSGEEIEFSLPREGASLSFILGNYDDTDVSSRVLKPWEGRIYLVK
Procedure: The relationship of enzyme concentration with enzyme activity in presence of compounds 5e, 5 g, and 5 h was firstly investigated.
The inhibitory kinetics of compounds 5e, 5 g, and 5 h on α-glucosidase were studied using Lineweaver-Burk plots.
Besides, we also determined the equilibrium constants of binding of inhibitors to free enzymes (KI) and enzyme-substrate complexes (KIS) through plots of slope (Km/Vm) and vertical intercept (1/Vm) vs inhibitor concentration.
The inhibition mechanism of compounds 5 g, 5e, and 5 h was analysed using similar above method. The enzyme inhibitory kinetics was detected using plots of enzyme concentration vs remaining enzyme activity at different inhibitor concentrations, and the substrate inhibitory kinetics was obtained from Lineweaver-Burk plot of remaining enzyme activity vs substrate concentration in the presence of different inhibitor concentrations.[32]

α-amylase = molecular target: T1, α-amylase (Sus scrofa, UniProt P00690); experiment: Inhibition mechanism study of α-amylase inhibitor (enzyme concentration plots, Lineweaver-Burk plots); format: biochemical; settings: for Inhibition type against α-amylase: Lineweaver-Burk plots; for KIS value (μM) against α-amylase: binding of inhibitor to enzyme-substrate complex; for Reversibility of α-amylase inhibition: plots of enzyme concentration vs remaining enzyme activity
T1 sequence (P00690 16-511): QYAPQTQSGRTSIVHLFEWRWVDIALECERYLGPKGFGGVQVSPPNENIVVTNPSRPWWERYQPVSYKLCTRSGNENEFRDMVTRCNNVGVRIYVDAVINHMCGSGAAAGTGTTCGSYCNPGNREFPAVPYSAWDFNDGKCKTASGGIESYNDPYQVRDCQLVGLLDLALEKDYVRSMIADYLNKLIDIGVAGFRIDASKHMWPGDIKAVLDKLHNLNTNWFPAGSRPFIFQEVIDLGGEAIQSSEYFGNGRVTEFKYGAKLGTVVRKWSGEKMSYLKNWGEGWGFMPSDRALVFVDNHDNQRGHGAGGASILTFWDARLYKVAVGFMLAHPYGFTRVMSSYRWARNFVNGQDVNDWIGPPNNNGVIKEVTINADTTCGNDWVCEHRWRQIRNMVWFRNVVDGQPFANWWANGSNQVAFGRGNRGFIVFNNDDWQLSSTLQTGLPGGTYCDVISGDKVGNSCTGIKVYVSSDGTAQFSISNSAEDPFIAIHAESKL
Procedure: The highest potent inhibitory compounds 5 g, 5 h, and 5 s were evaluated their inhibition mechanism. […] Lineweaver-Burk plots were used to analyse the inhibitory kinetics of compounds 5 g, 5 h, and 5 s. […] Besides, the KI and KIS values of compounds 5 g, 5 h, and 5 s were measured, showing KI values were higher than KIS values (Table 3).
The inhibition mechanism of compounds 5 g, 5 h, and 5S was also analysed. The enzyme inhibitory kinetics was detected using plots of enzyme concentration vs remaining enzyme activity at different inhibitor concentrations, and the substrate inhibitory kinetics was obtained from Lineweaver-Burk plot of remaining enzyme activity vs substrate concentration in the presence of different inhibitor concentrations.

**Q.** For `N#CC(c1c[nH]c2ccccc12)c1c[nH]c2ccccc12` [Compound 5a, 2,2-Di(1H-indol-3-yl)acetonitrile], which melting point is on record?
**A.** Its melting point is 173.9 to 178.3 °C.

**Q.** With `N#CC(c1c[nH]c2ccc(F)cc12)c1c[nH]c2ccc(F)cc12` [Compound 5b, 2,2-Bis(5-fluoro-1H-indol-3-yl)acetonitrile] as the compound, how does the melting point read?
**A.** The melting point was 182.7 to 187.5 °C.

**Q.** Which melting point does the source give for `N#CC(c1c[nH]c2cccc(Cl)c12)c1c[nH]c2cccc(Cl)c12` [Compound 5c, 2,2-Bis(4-chloro-1H-indol-3-yl)acetonitrile] here?
**A.** The melting point was 230 to 235.8 °C.

**Q.** With `N#CC(c1c[nH]c2ccc(Cl)cc12)c1c[nH]c2ccc(Cl)cc12` [Compound 5d, 2,2-Bis(5-chloro-1H-indol-3-yl)acetonitrile] as the compound, how does the melting point read?
**A.** The melting point was 168 to 173.4 °C.

**Q.** With `N#CC(c1c[nH]c2cc(Cl)ccc12)c1c[nH]c2cc(Cl)ccc12` [Compound 5e, 2,2-Bis(6-chloro-1H-indol-3-yl)acetonitrile] as the compound, how does the “Effect on the viability of HepG2 cells” value (HepG2 cells) read?
**A.** The value was “no effect on the viability”.

**Q.** What about the “Effect on the viability of 3T3-L1 cells” value (3T3-L1 cells) of the same compound?
**A.** The value was “no effect on the viability”.

**Q.** And the “Inhibition type against α-glucosidase” value (α-glucosidase)?
**A.** Its value is “mixed-type inhibitors”.

**Q.** And the “KIS value (μM) against α-glucosidase” value (α-glucosidase)?
**A.** Its value is 2.11 µM.

**Q.** And the “Reversibility of α-glucosidase inhibition” value (α-glucosidase)?
**A.** The value was “reversible”.

**Q.** What about the melting point of the same compound?
**A.** Its melting point is 175.6 to 178.2 °C.

**Q.** With `N#CC(c1c[nH]c2c(Cl)cccc12)c1c[nH]c2c(Cl)cccc12` [Compound 5f, 2,2-Bis(7-chloro-1H-indol-3-yl)acetonitrile] as the compound, how does the melting point read?
**A.** Its melting point is 162.2 to 168.8 °C.

**Q.** What does the source list for `N#CC(c1c[nH]c2ccc(Br)cc12)c1c[nH]c2ccc(Br)cc12` [Compound 5g, 2,2-Bis(5-bromo-1H-indol-3-yl)acetonitrile]?
**A.** Effect on the viability of HepG2 cells (HepG2 cells): no effect on the viability; Effect on the viability of 3T3-L1 cells (3T3-L1 cells): no effect on the viability; Inhibition type against α-glucosidase (α-glucosidase): Mixed type; Inhibition type against α-glucosidase (α-glucosidase; listed as 5 g): mixed-type inhibitors; KIS value (μM) against α-glucosidase (α-glucosidase): 1.59 µM; Reversibility of α-glucosidase inhibition (α-glucosidase): reversible; Inhibition type against α-amylase (α-amylase): Mixed type; Inhibition type against α-amylase (α-amylase; listed as 5 g): mixed inhibitors; KIS value (μM) against α-amylase (α-amylase): 25.02 µM; Reversibility of α-amylase inhibition (α-amylase): reversibly inhibited

**Q.** For `N#CC(c1c(-c2ccccc2)[nH]c2ccccc12)c1c(-c2ccccc2)[nH]c2ccccc12` [Compound 5h, 2,2-Bis(2-phenyl-1H-indol-3-yl)acetonitrile], which “Effect on the viability of HepG2 cells” value (HepG2 cells) is on record?
**A.** Its value is “no effect on the viability”.

**Q.** What about the “Effect on the viability of 3T3-L1 cells” value (3T3-L1 cells) of the same compound?
**A.** Its value is “no effect on the viability”.

**Q.** And the “Inhibition type against α-glucosidase” value (α-glucosidase)?
**A.** Its value is “Mixed type”.

**Q.** What about the “Inhibition type against α-glucosidase” value (α-glucosidase; listed as 5 h) of the same compound?
**A.** Its value is “mixed-type inhibitors”.

**Q.** What about the “KIS value (μM) against α-glucosidase” value (α-glucosidase) of the same compound?
**A.** The value was 1.69 µM.

**Q.** What about the “Reversibility of α-glucosidase inhibition” value (α-glucosidase) of the same compound?
**A.** Its value is “reversible”.

**Q.** What about the “Inhibition type against α-amylase” value (α-amylase) of the same compound?
**A.** The value was “Mixed type”.

**Q.** And the “Inhibition type against α-amylase” value (α-amylase; listed as 5 h)?
**A.** Its value is “mixed inhibitors”.

**Q.** And the “KIS value (μM) against α-amylase” value (α-amylase)?
**A.** Its value is 1.63 µM.

**Q.** What about the “Reversibility of α-amylase inhibition” value (α-amylase) of the same compound?
**A.** Its value is “reversibly inhibited”.

**Q.** What about the melting point of the same compound?
**A.** The melting point was 112 to 117.9 °C.

**Q.** Which melting point does the source give for `Cc1[nH]c2ccccc2c1C(C#N)c1c(C)[nH]c2ccccc12` [Compound 5i, 2,2-Bis(2-methyl-1H-indol-3-yl)acetonitrile] here?
**A.** The melting point was 231.2 to 236.6 °C.

**Q.** With `Cc1cccc2[nH]cc(C(C#N)c3c[nH]c4cccc(C)c34)c12` [Compound 5j, 2,2-Bis(4-methyl-1H-indol-3-yl)acetonitrile] as the compound, how does the melting point read?
**A.** Its melting point is 246.2 to 250.1 °C.

**Q.** For `Cc1ccc2[nH]cc(C(C#N)c3c[nH]c4ccc(C)cc34)c2c1` [Compound 5k, 2,2-Bis(5-methyl-1H-indol-3-yl)acetonitrile], which melting point is on record?
**A.** The melting point was 205.1 to 210.1 °C.

**Q.** With `Cc1ccc2c(C(C#N)c3c[nH]c4cc(C)ccc34)c[nH]c2c1` [Compound 5l, 2,2-Bis(6-methyl-1H-indol-3-yl)acetonitrile] as the compound, how does the melting point read?
**A.** Its melting point is 178.4 to 183.7 °C.

**Q.** Which melting point does the source give for `Cc1cccc2c(C(C#N)c3c[nH]c4c(C)cccc34)c[nH]c12` [Compound 5m, 2,2-Bis(7-methyl-1H-indol-3-yl)acetonitrile] here?
**A.** The melting point was 214.1 to 219.4 °C.

**Q.** Which melting point does the source give for `Cc1[nH]c2ccc(F)cc2c1C(C#N)c1c(C)[nH]c2ccc(F)cc12` [Compound 5n, 2,2-Bis(5-fluoro-2-methyl-1H-indol-3-yl)acetonitrile] here?
**A.** The melting point was 183.4 to 188 °C.

**Q.** Which melting point does the source give for `Cc1ccc2[nH]c(C)c(C(C#N)c3c(C)[nH]c4ccc(C)cc34)c2c1` [Compound 5o, 2,2-Bis(2,5-dimethyl-1H-indol-3-yl)acetonitrile] here?
**A.** The melting point was 231.2 to 236.4 °C.

**Q.** Which melting point does the source give for `COc1ccc2[nH]cc(C(C#N)c3c[nH]c4ccc(OC)cc34)c2c1` [Compound 5p, 2,2-Bis(5-methoxy-1H-indol-3-yl)acetonitrile] here?
**A.** Its melting point is 118.5 to 123 °C.

**Q.** Which melting point does the source give for `COC(=O)c1ccc2[nH]cc(C(C#N)c3c[nH]c4ccc(C(=O)OC)cc34)c2c1` [Compound 5q, Dimethyl 3,3'-(cyanomethylene)bis(1H-indole-5-carboxylate)] here?
**A.** The melting point was 259.6 to 266.9 °C.

**Q.** Which melting point does the source give for `Cn1cc(C(C#N)c2cn(C)c3ccccc23)c2ccccc21` [Compound 5r, 2,2-Bis(1-methyl-1H-indol-3-yl)acetonitrile] here?
**A.** The melting point was 70.3 to 74.6 °C.

**Q.** Which “Effect on the viability of HepG2 cells” value (HepG2 cells) does the source give for `Cn1cc(C(C#N)c2cn(C)c3ccc(Br)cc23)c2cc(Br)ccc21` [Compound 5s, 2,2-Bis(5-bromo-1-methyl-1H-indol-3-yl)acetonitrile] here?
**A.** Its value is “no effect on the viability”.

**Q.** What about the “Effect on the viability of 3T3-L1 cells” value (3T3-L1 cells) of the same compound?
**A.** Its value is “no effect on the viability”.

**Q.** What about the “Inhibition type against α-amylase” value (α-amylase) of the same compound?
**A.** The value was “Mixed type”.

**Q.** What about the “Inhibition type against α-amylase” value (α-amylase; listed as 5 s) of the same compound?
**A.** Its value is “mixed inhibitors”.

**Q.** What about the “KIS value (μM) against α-amylase” value (α-amylase) of the same compound?
**A.** The value was 9.01 µM.

**Q.** And the “Reversibility of α-amylase inhibition” value (α-amylase)?
**A.** The value was “reversibly inhibited”.

**Q.** And the melting point?
**A.** The melting point was 177.7 to 181.7 °C.

**Q.** Which melting point does the source give for `CCOC(=O)CNc1ccc(C(C#N)c2ccc(NCC(=O)OCC)cc2)cc1` [Compound 7b, Diethyl 2,2’-(((cyanomethylene)bis(4,1-phenylene))bis(azanediyl))diacetate] here?
**A.** The melting point was 87.5 to 93.4 °C.

**Q.** With `COC(=O)CNc1ccc(C(C#N)c2ccc(NCC(=O)OC)cc2)cc1` [Compound 7c, Dimethyl 2,2’-(((cyanomethylene)bis(4,1-phenylene))bis(azanediyl))diacetate] as the compound, how does the melting point read?
**A.** The melting point was 135.7 to 140.8 °C.
